# Assay results taken from patent US6497862B2, “Composition for inhibiting body odor and uses thereof” (Kabushiki Kaisha Hayashibara, priority 2000, dated 2002).
# Columns and labels:
# [1] = Decomposition of fatty acids by heating, 9-hexadecanoic acid (Experiment 5); conditions: heated at 105° C. for one hour with 100 mg test saccharide; control 38.1
# Description: (§1) One hundred milligrams of linoleic acid or 9-hexadecanoic acid as a fatty acid, 500 mg of a cellulose powder, and 1.25 ml of 0.12 M phosphate buffer (pH 6.0) were placed in a 20-ml glass vial. To the glass vial was added 100 mg of either of trehalose, maltitol and sucrose as a test saccharide, followed by sealing with a butyl rubber cap. As a control system, there provided a glass vial with no test saccharide that differed from the test systems only in this point. These vials were heated at 105° C. for one hour. Another glass vial with no heat treatment, which contained the same ingredients as shown in the above, was provided that differed from the test systems only in that it had no heat treatment.
# (§2) The above test systems with or without heat treatment and the control system were subjected to the following methyl esterification reaction and analyzed on GC to measure the content of fatty acids; To each glass vial was added 20 ml of a mixture solution of chloroform and methanol (=2:1 by volume) to extract fatty acids, and one milliliter of each resulting extract was collected in a 10-ml eggplant-shape flask, concentrated, and dried in vacuo. […]
# (§3) Two microliters of each of the resulting n-hexane layers were analyzed on GC using “GAS CHROMATOGRAPH GC-14A”, a GC apparatus, commercialized by Shimadzu Corporation, Tokyo, Japan; and “CAPILLARY COLUMN FFAP”, an analysis column having an inner diameter of 0.25 mm, a length of 30 m, and a membrane thickness of 0.25 μm, commercialized by GL Sciences Inc., Tokyo, Japan, under the conditions of using helium gas as a carrier at a flow rate of 1 ml/min, at a temperature of 250° C. as a sample injection temperature, a column thermostatic bath temperature being kept at 80° C. for five minutes and then increased up to 240° C. at a rate of 5° C./min, and a hydrogen flame ionization detector for detecting fatty acids. Based on the peak area of the obtained gas chromatograms, it was calculated the content of fatty acids, i.e., linoleic acid and 9-hexadecanoic acid, before or after the heat treatment in the test- and control-systems. […]
# [2] = Formation of volatile aldehydes from oleic acid by heating, GC analysis of head space gas (Experiment 1); conditions: oleic acid 100 mg + 100 mg test saccharide, heated at 105° C. for one hour; for Content in HSG, Hexanal: control 0.08; for Content in HSG, Butanal: control 1.04; for Content in HSG, Propanal: control 9.41
# Description: (§4) One hundred milligrams of oleic acid as a fatty acid, 500 mg of cellulose powder, and 1.25 ml of 0.12 M phosphate buffer (pH 6.0) were placed in a 20-ml glass vial. To the glass vial were added 100 mg of either of crystalline trehalose hydrate, crystalline maltitol anhydride, crystalline sorbitol anhydride, crystalline sucrose anhydride, crystalline maltose anhydride, and crystalline neotrehalose hydride as test saccharides (throughout Experiments 1 to 6, these saccharides are designated as “trehalose”, “maltitol”, sorbitol”, “sucrose”, “maltose”, and “neotrehalose”, respectively), followed by sealing the glass vial with a butyl rubber. As a control system, there provided a glass vial, with no a test saccharide, which differed from the test glass vial on this point. These glass vials were heated at 105° C. for one hour, cooled to ambient temperature, and kept in an aluminum heat-block (abbreviated as “heat block, hereinafter”), which had been preheated to 80° C. After 5-minutes standing, two milliliters of a head space gas (abbreviated as “HSG”, hereinafter) were collected from each glass vial with a syringe.
# (§5) The collected HSG was analyzed for content of volatile aldehydes on gas chromatography (abbreviated as “GC” hereinafter) using “GAS CHROMATOGRAPH GC-14A”, as a GC apparatus; “CAPILLARY COLUMN SUPELCO-WAX”, having 0.25 mm in inner diameter, 60 m in length, and 0.25 μm in thickness, commercialized by Supelco Inc., Tokyo, Japan, as a column for analysis; helium gas at a flow rate of one ml/min as a carrier gas, under temperature conditions of 250° C. for injecting a sample and of a column thermostatic bath temperature being kept at 80° C. for five minutes and then increased up to 240° C. at a rate of 5° C./min. As standard specimens, propanal, butanal, and hexanal as volatile aldehydes were used. Based on the peak area obtained from gas chromatography for the standard specimens and HSG samples, the content of respective volatile aldehydes in HSG was calculated.
# [3] = Decomposition of fatty acids by heating, linoleic acid (Experiment 5); conditions: heated at 105° C. for one hour with 100 mg test saccharide; control 60.0
# Description: as §1, §2, §3
# [4] = Panel test of body-odor-like smell (KAREI-SHU), linoleic acid heated (Experiment 2); design: key: +++: the same or higher level of odor; ++: slightly lower level of odor; +: clearly lower level of odor than that of the control system; conditions: compared with control system
# Excerpt: Upon the HSG samples, the level of a body-odor-like smell was examined on a panel test consisting of six professional panels; the panels directly smelled the samples from each glass vial and judged the level of the smells for each samples with test saccharides based on the following four ranks, i.e., the same or higher level of odor (+++), slightly lower level of odor (++), clearly lower level of odor (+), and odorless (−) as compared with the control system. Summing up the data from the panels, the samples tested were totally evaluated.
# (§6) The content of 2-nonenal in HSG was measured by GC similarly as in Experiment 1 except that linoleic acid was used as a fatty acid and 2-nonenal, a volatile aldehyde, was used as a standard substance. The level of a body-odor-like smell, particularly with respect to KAREI-SHU, in each sample was evaluated by panel test in accordance with the method in Experiment 1.
# [5] = Formation of 2-nonenal from 9-hexadecanoic acid by heating, GC of HSG (Experiment 3); conditions: 9-hexadecanoic acid + 100 mg test saccharide, heated at 105° C. for one hour; control 25.7
# Description: as §4, §5
# as §6, with “9-hexadecanoic acid or palmitoleic” for “linoleic”, “of” for “of a”
Structure (SMILES),"Decomposition percentage, 9-Hexadecanoic acid [1] [%]","Content in HSG, Hexanal [2] [µg/mL]","Content in HSG, Butanal [2] [µg/mL]","Content in HSG, Propanal [2] [µg/mL]","Decomposition percentage, Linoleic acid [3] [%]",Evaluation of panel test [4],Content of 2-nonenal in HSG [5] [µg/mL]
"OC[C@@H](O)[C@@H](O[C@H]1O[C@H](CO)[C@@H](O)[C@H](O)[C@H]1O)[C@H](O)[C@@H](O)CO [Maltitol, maltitol]",14.7,0.03,1.02,4.09,33.4,+,6.17
"OC[C@H]1O[C@H](O[C@H]2O[C@H](CO)[C@@H](O)[C@H](O)[C@H]2O)[C@H](O)[C@@H](O)[C@@H]1O [Trehalose, trehalose]",13.2,0.02,0.19,3.47,25.2,+,4.10
"OC[C@H]1O[C@@](CO)(O[C@H]2O[C@H](CO)[C@@H](O)[C@H](O)[C@H]2O)[C@@H](O)[C@@H]1O [Sucrose, sucrose]",38.5,0.07,1.11,9.98,58.0,+++,24.4
